Source: patent publication US20100204460A1, “NATURAL BRASSINOSTEROIDS FOR USE FOR TREATING HYPERPROLIFERATION, TREATING PROLIFERATIVE DISEASES AND REDUCING ADVERSE EFFECTS OF STEROID DYSFUNCTION IN MAMMALS, PHARMACEUTICAL COMPOSITION AND ITS USE” (priority 2007, published 2010)

Key:
arena viruses = details: cited from earlier work
[1] = system: normal and cancer cell lines of different histopathological origin; experiment: Calcein AM cytotoxicity assay, summary statements over the cell line panel; type: cell-based; details: versus 28-homobrassinolide 2
Method: Stock solutions ([…]) were prepared by dissolving relevant quantity of substance in DMSO cultivation media (DMEM, RPMI 1640, F-12 medium), fetal bovine serum (FBS), L-glutamine, penicillin, and streptomycin were purchased from Sigma (MO, USA). 3-(4,5-Dimethylthiazol-2-yl)-2,5-diphenyltetrazolium bromide (MTT) was from Serva Electrophoresis (Heidelberg, Germany). Monoclonal mouse anti-bromodeoxyuridine (BrdU) intibody was obtained from DakoCytomation (Glostrup, Denmark). Calcein AM was obtained from PAA Laboratories GmbH (Pasching, Austria). The screening cell lines (T-lymphoblastic leukaemia cell line CEM; breast carcinoma cell line MCF-7 (estrogen-sensitive), breast adenocarcinoma cell line MDA-MB 468 (cell lines LNCaP (androgen-sensitive), prostate carcinoma cell line DU-145 ([…]), lung carcinoma cell line A-549, chronic myelogenous leukemia cell line K562, multiple myeloma cell line RPMI 8226, cervical carcinoma cell line HeLa, malignant human melanoma cell line G361, osteosarcoma cell line HOS, and normal human fibroblasts (BJ) were obtained from the American Type Culture Collection (Manassas, Va., USA). MCF-7 cells were cultured in F-12 medium (Sigma, MO, USA). LNCaP cells were cultured in RPMI 1640 medium (GIBCO, USA). All other cells were cultured in DMEM medium (Sigma, MO, USA). All used media were supplemented with 10% heat-inactivated fetal bovine serum, 2 mmol/L L-glutamine, 1% penicillin/streptomycin. The cell lines were maintained under standard cell culture conditions at 37° C. and 5% CO2 in a humid environment. Cells were subcultured twice or three times a week using the standard trypsinization procedure (Sigma, USA).
The cell suspension of approximate density of 1.25×10^5 cells/mL was redistributed into 96-well microtitre plates and after 12 h of stabilization the tested Brassinosteroids (BRs) were added in different concentrations. BRs were dissolved in DMSO. Control cultures were treated with DMSO alone. The final concentration of DMSO in the reaction mixture never exceeded 1%. Tested compounds in given concentrations were added at time zero in 20 μL aliquots to the microtiter plate wells. Usually, each test compound was evaluated at six 4-fold dilutions. In routine testing, the highest well concentration was 50 μmol, but it can be the matter of change dependent on the agent. Cultivation proceeds 96 h at 37° C., the cells were incubated with Calcein AM solution (Molecular Probes) for 1 h. Fluorescence (OD) of viable cells was quantified with Fluoroscan Ascent (Microsystems). The cell survival (IC50) was calculated using the following equation: IC50=(ODdrug exposed well/mean ODcontrol wells)×100%. Each compound was tested in triplicates and the test was repeated at least 3 times. The IC50 value, corresponding to drug concentration lethal to 50% of the tumor cells, was calculated from the obtained dose response curves.
We investigated effects of brassinosteroid on viability of normal and cancer cell lines of different histopathological origin. To evaluate the cytotoxic properties of several BRs and some related steroids, we used T-lymphoblastic leukaemia cell line CEM, breast carcinoma cell line MCF-7, lung carcinoma cell line A-549, chronic myeloid leukaemia cell line K562, multiple myeloma cell line RPMI 8226, cervical carcinoma cell line HeLa, malignant melanoma cell line G361, osteosarcoma cell line HOS, and normal human fibroblasts BJ. The cells were exposed to six 4-fold dilutions of each drug for 72 h to determinate number of surviving cells.

SMILES: CC[C@@H](C(C)C)[C@@H](O)[C@H](O)[C@@H](C)[C@H]1CC[C@H]2[C@@H]3CC(=O)[C@H]4C[C@H](O)[C@H](O)C[C@]4(C)[C@H]3CC[C@]12C [Brassinosteroid 9, 28-Homocastasterone]
- in vitro antiviral activity (arena viruses): in vitro antiviral activity
- strength of growth inhibitory response relative to 28-homobrassinolide 2 [1]: about 3 times
